Assay results reported in ChEMBL document CHEMBL1158630, “Synthesis, docking studies, and evaluation of pyrimidines as inhibitors of SARS-CoV 3CL protease” (Bioorg Med Chem Lett, 2010).

Each compound was assayed against Replicase polyprotein 1a (Severe acute respiratory syndrome-related coronavirus, UniProt P0C6U8) (assay: Inhibition of SARS coronavirus chymotrypsin-like protease by fluorescence plate reader).
Work on `N#Cc1c(-c2cccc([N+](=O)[O-])c2)nc(SCCc2ccccc2)[nH]c1=O` yielded an IC50 greater than 50 µM. Compound `N#Cc1c(-c2ccc(Cl)cc2)nc(SCc2ccc([N+](=O)[O-])cc2)[nH]c1=O` has an IC50 of 6.1 µM. `Cc1ccc(-c2nc(SCc3ccc([N+](=O)[O-])cc3)[nH]c(=O)c2C#N)cc1` was tested, and the IC50 was greater than 50 µM. `Cc1ccc(-c2nc(SCCc3ccccc3)[nH]c(=O)c2C#N)cc1` was tested, and the IC50 was greater than 50 µM. `COc1ccc(-c2nc(SCCc3ccccc3)[nH]c(=O)c2C#N)cc1` gave an IC50 of 20.3 µM. `N#Cc1c(-c2ccc(Cl)cc2)nc(SCCc2ccccc2)[nH]c1=O` showed an IC50 of 16.9 µM. Compound `N#Cc1c(-c2cccc([N+](=O)[O-])c2)nc(SCc2ccc([N+](=O)[O-])cc2)[nH]c1=O` has an IC50 of 10.6 µM. `N#Cc1c(-c2cccc(Cl)c2)nc(SCc2ccccc2)[nH]c1=O` showed an IC50 greater than 50 µM. `N#Cc1c(-c2ccccc2)nc(SCc2ccc([N+](=O)[O-])cc2)[nH]c1=O` was tested, and the IC50 was 35.2 µM. Compound `N#Cc1c(-c2ccccc2)nc(SCCc2ccccc2)[nH]c1=O` has an IC50 greater than 50 µM. With `COc1ccc(-c2nc(SCc3ccc([N+](=O)[O-])cc3)[nH]c(=O)c2C#N)cc1` the IC50 was 26.3 µM. `N#Cc1c(-c2ccccc2)nc(SCc2ccccc2)[nH]c1=O` was tested, and the IC50 was greater than 50 µM. `Cc1ccc(-c2nc(SCc3ccccc3)[nH]c(=O)c2C#N)cc1` was tested, and the IC50 was greater than 50 µM. `COc1ccc(-c2nc(SCc3ccccc3)[nH]c(=O)c2C#N)cc1` gave an IC50 greater than 50 µM.
